Values quoted from earlier work in PMC4452912 (Viruses, 2015).

Assays:
DENV, HCV, and HIV = system: DENV, HCV, and HIV; parameters: method as in ref 3 = [3]; settings: cited from earlier work
[1] = mouse, in vivo; cited from earlier work
DENV-2 = system: DENV-2; parameters: method as in ref 16 = [16]; settings: DENV-2 ADE mouse model; cited from earlier work

SMILES | concentrations required for broad-spectrum antiviral activity in vitro (DENV, HCV, and HIV) | thymus effect [1] | dose range promoting survival (DENV-2)
CCCCN1C[C@H](O)[C@@H](O)[C@H](O)[C@H]1CO [NB-DNJ, N-butyl-deoxynojirimycin] | > 30 µM | thymus weight loss | –
COCCCCCCCCCN1C[C@H](O)[C@@H](O)[C@H](O)[C@H]1CO [UV-4] | – | – | 10 to 20 mg/kg
